In patent US10428044B2, “3-amino-1,5,6,7-tetrahydro-4H-indol-4-ones” (Bayer Pharma Aktiengesellschaft, priority 2014, dated 2019) one finds IC50 data, which are given here for 32 compounds.

The experiment deals with (recombinant) catalytic domain of human Bub1 (amino acids 704-1085) (Homo sapiens (Human), UniProt O43683). Put plainly: Bub1 kinase assay (TR-FRET). The conditions noted are these: ATP 10 μM final, peptide substrate 1 μM final, 60 min at 22° C., read-out: Biological Assay: Bub1 kinase assay median IC50. The class given is biochemical. The procedure:
Examples were tested in selected biological assays one or more times. When tested more than once, data are reported as either average values or as median values, wherein • the average value, also referred to as the arithmetic mean value, represents the sum of the values obtained divided by the number of times tested, and • the median value represents the middle number of the group of values when ranked in ascending or descending order. If the number of values in the data set is odd, the median is the middle value. If the number of values in the data set is even, the median is the arithmetic mean of the two middle values.
To this end, 100-fold concentrated compound solutions (in DMSO) were previously prepared by serial dilution (1:3.4) of 2 mM stocks in a clear low volume 384-well source microtiter plate (Greiner Bio-One, Frickenhausen, Germany), from which 50 nl of compounds were transferred into a black low volume test microtiter plate from the same supplier. […] The resulting mixture (5 μL final volume) was incubated at 22° C. during 60 min., and the reaction was stopped by the addition of 5 μL of an aqueous EDTA-solution (50 mM EDTA, in 100 mM HEPES pH 7.5 and 0.2% (w/v) bovine serum albumin) which also contained the TR-FRET detection reagents (0.2 μM streptavidin-XL665 [Cisbio Bioassays, Codolet, France] and 1 nM anti-phosho-Serine antibody [Merck Millipore, cat. #35-002] and 0.4 nM LANCE EU-W1024 labeled anti-mouse IgG antibody [Perkin-Elmer, product no. AD0077, alternatively a Terbium-cryptate-labeled anti-mouse IgG antibody from Cisbio Bioassays can be used]). The stopped reaction mixture was further incubated 1 h at 22° C. in order to allow the formation of complexes between peptides and detection reagents. Subsequently, the amount of product was evaluated by measurement of the resonance energy transfer from the Eu-chelate-antibody complex recognizing the Phosphoserine residue to the streptavidin-XL665 bound to the biotin moiety of the peptide. […] The data were normalised using two sets of control wells for high- (=enzyme reaction without inhibitor=0%=Minimum inhibition) and low- (=all assay components without enzyme=100%=Maximum inhibition) Bub1 activity. IC50 values were calculated by fitting the normalized inhibition data to a 4-parameter logistic equation (Minimum, Maximum, IC50, Hill; Y=Max+(Min−Max)/(1+(X/IC50)Hill)).
A general note: In TR-FRET formats the signal depends on donor and acceptor labels being close together.

Sequence of (recombinant) catalytic domain of human Bub1 (amino acids 704-1085) (O43683 704-1085): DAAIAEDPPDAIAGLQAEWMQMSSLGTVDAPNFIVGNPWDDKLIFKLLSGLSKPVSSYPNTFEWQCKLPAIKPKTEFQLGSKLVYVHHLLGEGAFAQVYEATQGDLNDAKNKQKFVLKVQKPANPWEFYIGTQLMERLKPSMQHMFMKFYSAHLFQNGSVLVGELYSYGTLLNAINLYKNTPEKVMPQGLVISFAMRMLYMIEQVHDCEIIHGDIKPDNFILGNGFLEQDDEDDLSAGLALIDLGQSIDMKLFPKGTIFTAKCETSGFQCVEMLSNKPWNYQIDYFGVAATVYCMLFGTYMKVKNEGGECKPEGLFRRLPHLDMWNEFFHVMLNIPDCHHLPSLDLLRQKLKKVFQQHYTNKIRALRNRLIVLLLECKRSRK

By IC50 is commonly meant the concentration needed to halve the response being measured. Consider `CCc1cccc(Nc2c(-c3ccncc3)[nH]c3c2C(=O)CC(C)(C)C3)c1` [Example 15, 3-[(3-ethylphenyl)amino]-6,6-dimethyl-2-(pyridin-4-yl)-1,5,6,7-tetrahydro-4H-indol-4-one], for which the IC50 was 0.0236 µM.

In the case of `CC1(C)CC(=O)c2c([nH]c(-c3ccncc3)c2Nc2cccc([N+](=O)[O-])c2)C1` [Example 16, 6,6-dimethyl-3-[(3-nitrophenyl)amino]-2-(pyridin-4-yl)-1,5,6,7-tetrahydro-4H-indol-4-one], the half-maximal inhibitory concentration (IC50) is 0.0272 µM.

In the case of `CC1(C)CC(=O)c2c([nH]c(-c3ccncc3)c2Nc2cc(F)cc(Cl)c2)C1` [Example 19, 3-[(3-chloro-5-fluorophenyl)amino]-6,6-dimethyl-2-(pyridin-4-yl)-1,5,6,7-tetrahydro-4H-indol-4-one], the IC50 is 0.0195 µM.

In the case of `O=C1CC(C(F)(F)F)Cc2[nH]c(-c3ccncc3)c(Nc3ccccc3)c21` (centres unmarked) [Example 20, 3-(phenylamino)-2-(pyridin-4-yl)-6-(trifluoromethyl)-1,5,6,7-tetrahydro-4H-indol-4-one], the IC50 came out at 0.00933 µM.

Consider `CC1(C)CC(=O)c2c([nH]c(-c3ccncc3)c2Nc2ccc(F)c(F)c2)C1` [Example 21, 3-[(3,4-difluorophenyl)amino]-6,6-dimethyl-2-(pyridin-4-yl)-1,5,6,7-tetrahydro-4H-indol-4-one], for which the IC50 was 0.0132 µM.

Turning to `CC1CC(=O)c2c([nH]c(-c3ccncc3)c2Nc2ccccc2)C1` (centres unmarked) [Example 22, 6-methyl-3-(phenylamino)-2-(pyridin-4-yl)-1,5,6,7-tetrahydro-4H-indol-4-one], the IC50 was 0.0105 µM.

With `CC1(C)CC(=O)c2c([nH]c(-c3ccnc(F)c3)c2Nc2cccc(F)c2)C1` [Example 24, 3-[(3-fluorophenyl)amino]-2-(2-fluoropyridin-4-yl)-6,6-dimethyl-1,5,6,7-tetrahydro-4H-indol-4-one], the IC50 stood at 0.0204 µM.

Regarding `CC1(C)CC(=O)c2c([nH]c(-c3ccncc3)c2Nc2ccccn2)C1` [Example 25, 6,6-dimethyl-2-(pyridin-4-yl)-3-(pyridin-2-ylamino)-1,5,6,7-tetrahydro-4H-indol-4-one], the IC50 is 0.0263 µM.

As for `CC1(C)CC(=O)c2c([nH]c(-c3ccncc3)c2Nc2ccc3ccoc3c2)C1` [Example 26, 3-(1-benzofuran-6-ylamino)-6,6-dimethyl-2-(pyridin-4-yl)-1,5,6,7-tetrahydro-4H-indol-4-one], the IC50 worked out at 0.0327 µM.

Take `CC1(C)CC(=O)c2c([nH]c(-c3ccnc4[nH]ccc34)c2Nc2ccccc2)C1` [Example 27, 6,6-dimethyl-3-(phenylamino)-2-(1H-pyrrolo[2,3-b]pyridin-4-yl)-1,5,6,7-tetrahydro-4H-indol-4-one]: the IC50 stood at 0.0433 µM.

As to `CCC1CC(=O)c2c([nH]c(-c3ccncc3)c2Nc2ccccc2)C1` (centres unmarked) [Example 28, 6-ethyl-3-(phenylamino)-2-(pyridin-4-yl)-1,5,6,7-tetrahydro-4H-indol-4-one], the IC50 was 0.00593 µM.

`CC(C)CC1CC(=O)c2c([nH]c(-c3ccncc3)c2Nc2ccccc2)C1` (centres unmarked) [Example 29, 6-(2-methylpropyl)-3-(phenylamino)-2-(pyridin-4-yl)-1,5,6,7-tetrahydro-4H-indol-4-one]: the IC50 amounted to 0.00617 µM.

Consider `CC1(C)CC(=O)c2c([nH]c(-c3ccncc3F)c2Nc2ccccc2)C1` [Example 30, 2-(3-fluoropyridin-4-yl)-6,6-dimethyl-3-(phenylamino)-1,5,6,7-tetrahydro-4H-indol-4-one], for which the IC50 came out at 0.00569 µM.

As to `CC1(C)CC(=O)c2c([nH]c(-c3ccncc3)c2Nc2cc(F)cc(F)c2)C1` [Example 31, 3-[(3,5-difluorophenyl)amino]-6,6-dimethyl-2-(pyridin-4-yl)-1,5,6,7-tetrahydro-4H-indol-4-one], the IC50 stood at 0.00555 µM.

For `CC1(C)CC(=O)c2c([nH]c(-c3ccncc3)c2Nc2cc(F)c(F)c(F)c2)C1` [Example 32, 6,6-dimethyl-2-(pyridin-4-yl)-3-[(3,4,5-trifluorophenyl)amino]-1,5,6,7-tetrahydro-4H-indol-4-one], the IC50 was 0.0157 µM.

As for `O=C1CCCc2[nH]c(-c3ccncc3Cl)c(Nc3ccccc3)c21` [Example 33, 2-(3-chloropyridin-4-yl)-3-(phenylamino)-1,5,6,7-tetrahydro-4H-indol-4-one], the IC50 was 0.0179 µM.

Consider `CC1(C)CC(=O)c2c([nH]c(-c3ccnc4[nH]ncc34)c2Nc2ccccc2)C1` [Example 34, 6,6-dimethyl-3-(phenylamino)-2-(1H-pyrazolo[3,4-b]pyridin-4-yl)-1,5,6,7-tetrahydro-4H-indol-4-one], for which the IC50 amounted to 0.031 µM.

On to `CCC(=O)Nc1cc(-c2[nH]c3c(c2Nc2ccccc2)C(=O)CC(C)(C)C3)ccn1` [Example 35, N-{4-[6,6-dimethyl-4-oxo-3-(phenylamino)-4,5,6,7-tetrahydro-1H-indol-2-yl]pyridin-2-yl}propanamide], for which the IC50 came out at 0.0174 µM.

As for `CC(=O)Nc1cc(-c2[nH]c3c(c2Nc2ccccc2)C(=O)CC(C)(C)C3)ccn1` [Example 36, N-{4-[6,6-dimethyl-4-oxo-3-(phenylamino)-4,5,6,7-tetrahydro-1H-indol-2-yl]pyridin-2-yl}acetamide], the IC50 is 0.0264 µM.

As to `O=C1CC2(CC2)Cc2[nH]c(-c3ccncc3)c(Nc3ccccc3)c21` [Example 37, 3′-(phenylamino)-2′-(pyridin-4-yl)-1′,7′-dihydrospiro[cyclopropane-1,6′-indol]-4′(5′H)-one], the half-maximal inhibitory concentration (IC50) came to 0.0085 µM.

Regarding `O=C1CCCc2[nH]c(-c3ccncc3)c(Nc3ccc(F)c(F)c3)c21` [Example 38, 3-[(3,4-difluorophenyl)amino]-2-(pyridin-4-yl)-1,5,6,7-tetrahydro-4H-indol-4-one], the IC50 was 0.00797 µM.

With `CC(=O)Nc1cc(-c2[nH]c3c(c2Nc2ccccc2)C(=O)CCC3)ccn1` [Example 39, N-{4-[4-oxo-3-(phenylamino)-4,5,6,7-tetrahydro-1H-indol-2-yl]pyridin-2-yl}acetamide], the IC50 was determined as 0.0148 µM.

On to `CC(=O)Nc1cc(-c2[nH]c3c(c2Nc2cccc(F)c2)C(=O)CCC3)ccn1` [Example 40, N-(4-{3-[(3-fluorophenyl)amino]-4-oxo-4,5,6,7-tetrahydro-1H-indol-2-yl}pyridin-2-yl)acetamide], for which the IC50 was 0.0152 µM.

Turning to `O=C1CCCc2[nH]c(-c3ccncc3)c(Nc3cccc(F)c3)c21` [Example 41, 3-[(3-fluorophenyl)amino]-2-(pyridin-4-yl)-1,5,6,7-tetrahydro-4H-indol-4-one], the IC50 was found to be 0.0111 µM.

On to `O=C1CCCc2[nH]c(-c3ccncc3)c(Nc3ccc(F)cc3)c21` [Example 42, 3-[(4-fluorophenyl)amino]-2-(pyridin-4-yl)-1,5,6,7-tetrahydro-4H-indol-4-one], for which the IC50 stood at 0.023 µM.

Take `O=C1CC(C(F)(F)F)Cc2[nH]c(-c3ccncc3)c(Nc3cccc(F)c3)c21` (centres unmarked) [Example 43, 3-[(3-fluorophenyl)amino]-2-(pyridin-4-yl)-6-(trifluoromethyl)-1,5,6,7-tetrahydro-4H-indol-4-one]: the half-inhibitory concentration (IC50) is 0.0096 µM.

With `O=C1CCCc2[nH]c(-c3ccnc(F)c3)c(Nc3ccccc3)c21` [Example 44, 2-(2-fluoropyridin-4-yl)-3-(phenylamino)-1,5,6,7-tetrahydro-4H-indol-4-one], the IC50 amounted to 0.017 µM.

Take `CC1(C)CC(=O)c2c([nH]c(-c3ccncc3)c2Nc2cccc(-c3ccccc3)c2)C1` [Example 45, 3-(biphenyl-3-ylamino)-6,6-dimethyl-2-(pyridin-4-yl)-1,5,6,7-tetrahydro-4H-indol-4-one]: the IC50 was found to be 0.0208 µM.

Take `CC1(C)CC(=O)c2c([nH]c(-c3ccnc(C#N)c3)c2Nc2ccccc2)C1` [Example 46, 4-[6,6-dimethyl-4-oxo-3-(phenylamino)-4,5,6,7-tetrahydro-1H-indol-2-yl]pyridine-2-carbonitrile]: the IC50 amounted to 0.0291 µM.

In the case of `O=C1CCCc2[nH]c(-c3ccnc(NC(=O)C4CC4)c3)c(Nc3cccc(F)c3)c21` [Example 47, N-(4-{3-[(3-fluorophenyl)amino]-4-oxo-4,5,6,7-tetrahydro-1H-indol-2-yl}pyridin-2-yl)cyclopropanecarboxamide], the IC50 worked out at 0.0137 µM.

With `O=C1CCCc2[nH]c(-c3ccnc(NC(=O)C4CC4)c3)c(Nc3ccccc3)c21` [Example 48, N-{4-[4-oxo-3-(phenylamino)-4,5,6,7-tetrahydro-1H-indol-2-yl]pyridin-2-yl}cyclopropanecarboxamide], the IC50 worked out at 0.0135 µM.

For the compound `CC(C)C1CC(=O)c2c([nH]c(-c3ccnc(N)c3)c2Nc2ccccc2)C1` (centres unmarked) [Example 49, 2-(2-aminopyridin-4-yl)-3-(phenylamino)-6-(propan-2-yl)-1,5,6,7-tetrahydro-4H-indol-4-one], the half-maximal inhibitory concentration (IC50) was determined as 0.0131 µM.
